The source of these data is PubChem BioAssay (NCI).

SMILES strings stand for the structures.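 Assay format: 96-well plates, 48-hour exposure. Definition used: TGI = concentration required for complete inhibition of growth.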

Usually TGI stands for the concentration giving total growth inhibition. Low values mean greater sensitivity of the cells, high ones lower sensitivity of the cells.

Some test systems named below: LXFL 529 NSCLC; M19-MEL melanoma; HOP-62 NSCLC; SW-620 colon; DMS 114 small cell lung; SK-MEL-5 melanoma; XF 498 CNS; MALME-3M melanoma; ACHN renal; DMS 273 small cell lung; HOP-18 NSCLC; SNB-78 CNS; KM20L2 colon; SNB-19 CNS; DLD-1 colon; RXF-631 renal.
Holding throughout (experiment): DTP human tumour cell line panel, 48 h

For `Cc1ccc2c(c1)SC(c1cc3c(cc1Br)OCO3)S2` (stereo not drawn), the TGI in the test on LXFL 529 NSCLC is more than 31.6 µM; with M19-MEL melanoma it was more than 31.6 µM; in the test with HOP-62 NSCLC it was more than 31.6 µM; with SW-620 colon, more than 100 µM; in the test on DMS 114 small cell lung, more than 31.6 µM; with SK-MEL-5 melanoma, more than 31.6 µM. For the same compound, the TGI is more than 100 µM with XF 498 CNS; more than 31.6 µM in the test on MALME-3M melanoma; more than 31.6 µM in the test with ACHN renal; more than 31.6 µM with DMS 273 small cell lung; more than 31.6 µM in the test with HOP-18 NSCLC; more than 31.6 µM with SNB-78 CNS. Besides, the TGI in the test with KM20L2 colon was more than 31.6 µM; with SNB-19 CNS, more than 100 µM; in the test with DLD-1 colon it was more than 31.6 µM.
With `COC(=O)c1c2c(c(-c3ccccc3)c3c1-c1nc(Cl)ccc1CC3)CCc1ccc(Cl)nc1-2`, the TGI in the test on RXF-631 renal, in the test on LXFL 529 NSCLC, in the test with M19-MEL melanoma, with HOP-62 NSCLC, in the test on SW-620 colon and in the test with SK-MEL-5 melanoma was more than 100 µM in each case. In addition, the TGI with MALME-3M melanoma, with ACHN renal, in the test on HOP-18 NSCLC, in the test with SNB-78 CNS, in the test with KM20L2 colon and with SNB-19 CNS was more than 100 µM in each case. Also, the TGI with DLD-1 colon is more than 100 µM.
For `CCOC(=O)C(=Cc1cc(OC)ccc1OC)C(=O)OCC`, the TGI came to 32.5 µM in the test with RXF-631 renal; 12.2 µM in the test with LXFL 529 NSCLC; 17.9 µM in the test with M19-MEL melanoma; 23.6 µM with HOP-62 NSCLC; 14 µM in the test on SW-620 colon; 11.8 µM with DMS 114 small cell lung. Further, the TGI in the test with SK-MEL-5 melanoma was found to be 17.2 µM; in the test with XF 498 CNS, 23.6 µM; with MALME-3M melanoma it was 25.5 µM; with ACHN renal, 31.8 µM; in the test on DMS 273 small cell lung it was 14.2 µM; in the test with HOP-18 NSCLC it was 23.6 µM. Moreover, the figures for the TGI in the test with KM20L2 colon, in the test on SNB-19 CNS and in the test with DLD-1 colon were 17.5 µM, 25 µM and 21.8 µM, respectively.
